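Briefly, cells in 96-well plates were exposed to five compound concentrations for 48 h, and endpoints were estimated by linear interpolation. TGI denotes the concentration required for complete inhibition of growth.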
How the values were obtained:
Experiment in all cases: NCI-60 cell line screen, 48 h
ACHN renal = system: ACHN renal
HOP-92 NSCLC = system: HOP-92 NSCLC
HCC-2998 colon = system: HCC-2998 colon
IGROV1 ovarian = system: IGROV1 ovarian
MDA-N = system: MDA-N
UACC-62 melanoma = system: UACC-62 melanoma

| SMILES | TGI (ACHN renal) [µM] | TGI (HOP-92 NSCLC) [µM] | TGI (HCC-2998 colon) [µM] | TGI (IGROV1 ovarian) [µM] | TGI (MDA-N) [µM] | TGI (UACC-62 melanoma) [µM] |
| --- | --- | --- | --- | --- | --- | --- |
| C=CCC(CNC(=O)OCc1ccccc1)O[Si](C)(C)C(C)(C)C (configuration not stated) | > 100 | > 100 | > 100 | 84.3 | > 100 | > 100 |
| O=C1/C(=C/c2ccccc2)CCc2ccc(Cl)nc21 | 27.4 | 38.8 | 48.4 | 17.7 | 18.5 | 22.8 |
| Cc1cccc(C(C)(C)C)c1NC(=O)/C(Cc1nc2ccc([N+](=O)[O-])cc2[nH]c1=O)=N/NC(=O)C[N+](C)(C)C | > 100 | > 100 | > 100 | > 100 | > 100 | > 100 |
| CN(C(=O)C1(C(=O)C=[N+]=[N-])CC1)c1ccccc1 | > 100 | – | > 100 | > 100 | > 100 | > 100 |
| CNC(=O)CCC(NC(C)=O)C(=O)NC(Cc1ccc(NC(=O)CCCCC(C)=O)cc1)C(=O)NC(CCC(=O)NC)C(=O)NC (configuration not stated) | > 100 | > 100 | > 100 | > 100 | > 100 | > 100 |
| Cc1cc2ccccc2c[n+]1CC(O)C[n+]1cc2ccccc2cc1C | > 100 | > 100 | > 100 | > 100 | > 100 | > 100 |
| CC1(C)O[C@@H](CO)[C@H]([C@@]23OC[C@H]4OC(C)(C)OC4[C@@H]2OC(C)(C)O3)O1 (some centres not stated) | > 100 | > 100 | > 100 | > 100 | > 100 | – |
| O=C(C1=C(C(=O)c2ccccc2)SC2(S1)C(C(=O)c1ccccc1)=C(C(=O)c1ccccc1)Sc1c2ssc1=O)c1ccccc1 | > 100 | > 100 | > 100 | > 100 | > 100 | 44.9 |
| COc1cc2cc(C(=O)N3CC(CCl)c4c3cc(N)c3ccccc43)[nH]c2cc1OCCN(C)C (configuration not stated) | – | 0.01 | 0.535 | 0.00522 | – | 0.00871 |
| O=C(CC(O)(C(F)(F)F)C(F)(F)F)C(CCCl)C(O)(C(F)(F)F)C(F)(F)F (configuration not stated) | > 100 | – | > 100 | > 100 | > 100 | > 100 |
| N#Cc1c(Nc2ccc(F)cc2)[n+]([O-])c2ccc(Cl)cc2[n+]1[O-] | – | 5.16 | – | 4.02 | > 100 | 17.2 |
| COC(=O)C(/C(=N/NC(=O)c1ccncc1)C(=O)Nc1ccccc1OC)c1nc2ccc(Cl)cc2[nH]c1=O (configuration not stated) | > 100 | > 100 | – | > 100 | > 100 | > 100 |
| Cc1cc2ccccc2n1CC(=O)NCC(C)C | > 100 | > 100 | > 100 | > 100 | > 100 | > 100 |
| Nc1ccc2c(c1)C(=O)c1ccccc1-2 | > 100 | 91 | > 100 | > 100 | – | > 100 |
| CC1=C(C(=O)OCCc2ccc([N+](=O)[O-])cc2)C(c2ccccc2[N+](=O)[O-])C(C(=O)OC(C)C)=C(C)N1 (configuration not stated) | > 100 | – | > 100 | > 100 | > 100 | 58.4 |
| CS(=O)(=O)OCCN1CCC2(CC1)SSC1(CCN(CCOS(C)(=O)=O)CC1)S2 | > 100 | – | – | > 100 | > 100 | > 100 |

| SMILES | TGI (ACHN renal) [µM] | TGI (HOP-92 NSCLC) [µM] | TGI (HCC-2998 colon) [µM] | TGI (IGROV1 ovarian) [µM] | TGI (MDA-N) [µM] | TGI (UACC-62 melanoma) [µM] |
| --- | --- | --- | --- | --- | --- | --- |
| CC(NC(=O)/C(=C/c1ccccc1O)NC(=O)c1ccccc1)C(=O)O (configuration not stated) | 33.2 | > 100 | 76.2 | > 100 | > 100 | > 100 |
| O=C(N/N=C\c1cccc2ccccc12)Nc1ccc([N+](=O)[O-])cc1 | > 72.7 | 26.2 | > 70.3 | > 100 | > 89 | > 68.5 |
| COc1ccc(/C=C/c2cc(O)cc(OC)c2)cc1 | > 100 | > 100 | – | > 100 | – | > 100 |
| c1ccc(CCN2CCCCCC2)nc1 | > 100 | > 100 | – | > 100 | – | > 100 |
| COC(=O)[C@H](C)N1C(=O)N[C@@H](C(C)C)C1=O | > 100 | > 100 | > 100 | > 100 | > 100 | > 100 |
| CN(CCc1ccc(Cl)c(Cl)c1)[C@H]1CCCC[C@H]1N1CCCC1 | > 100 | > 100 | > 100 | > 100 | > 100 | > 100 |
| COC(=O)c1sc(=S)sc1SCc1ccccc1CSc1sc(=S)sc1C(=O)OC | > 100 | > 100 | > 100 | > 100 | > 100 | > 100 |
| CC(C)CCC[C@@H](C)[C@H]1CC[C@H]2[C@@H]3CC=C4C[C@@H](OC(=O)c5cccc6c(=O)c7ccccc7[nH]c56)CC[C@]4(C)[C@H]3CC[C@]12C | > 75 | > 75 | > 75 | > 75 | > 75 | > 75 |
| COc1ccc(C(O)c2ccc3c(c2)OCO3)cc1 (configuration not stated) | > 100 | > 100 | > 100 | > 100 | > 100 | > 100 |
| CCOC(=O)c1ccc2nc(NC(=O)COC(=O)CSc3nc(C)cc(C)n3)sc2c1 | > 100 | > 100 | – | > 100 | – | > 100 |
| Cc1cc(C)c(S(=O)(=O)N(CCCCN)OCCCN)c(C)c1 | 37 | 34.5 | 5.59 | 29.4 | 31.1 | 30.7 |
| CN=C(Nn1cnnc1)OC | > 100 | > 100 | > 100 | > 100 | > 100 | > 100 |
| O=C(/C=C/c1ccc(-c2ccccc2[N+](=O)[O-])o1)NCc1ccc(C(=O)NCCc2ccccc2)cc1 | > 100 | > 100 | > 100 | > 100 | – | > 100 |
| CC(=O)NC1C(CO)O[C@@H]2OC(C)(C)O[C@H]12 (some centres not stated) | > 100 | > 100 | > 100 | > 100 | > 100 | > 100 |
| OC1CCCC1C(O)(C(F)(F)F)C(F)(F)F (configuration not stated) | > 100 | > 100 | > 100 | > 100 | > 100 | > 100 |
